According to patent publication US11278682B2, “Device and method for aerosolized delivery of substance to a natural orifice of the body” (SIPNOSE LTD., priority 2014, dated 2022):
Like-named read-outs stand apart in the source and are kept apart here.

Key:
[1] = SPECT-CT distribution of 99mTC-DTPA aerosol in nasal cavity and nasopharynx; assay type: in vivo; conditions: human volunteer, 300 microliters, air volume 20 ml
Protocol: The effects of air volume and air pressure on the distribution of 99mTC-DTPA aerosol in the nasal cavity and nasopharynx were examined using SPECT-CT for two human volunteers.
In both cases, the deposited material comprised 300 microliters of DTPA; 1.75 mc (milli Ciri) and the air volume was 20 ml. A pressure of 6 barg was used for the results shown in FIG. 31A, while a pressure of 4 barg was used for the results shown in FIG. 31B.

[2] = rat, in vivo
Protocol: For most liquid drug formulations, the drugs are dissolved in, suspended in or mixed with water-based liquids. However, many of the cannabis derivatives that show promise as therapeutic agents, such as the cannabinoids, need to be dissolved in oil. Therefore, a study was done to investigate uptake to the brain of an oil-based formulation. For this study, Fluorescein was dissolved in oil and administered intranasally, via the SipNose device, to rats. Fluorescein was administered to the control animals intravenously.

rats [3] = conditions: cited from earlier work
rats [4] = experiment: Repeated Topiramate dosing: body weight and food consumption; assay type: in vivo, rat
Source text: The study investigated repeated intra-nasal delivery of Topiramate, using SipNose's novel device, in order to evaluate its effect on food consumption, body weight, and behavior and to measure the concentrations of the drug in the brain and plasma, in comparison to oral administration. Also, the safety of repeated dosing was examined.
The probability of appetite loss is a potential indicator for Topiramate. Food consumption was monitored during the experiment, and as the expectation was that food consumption will be reduced, care was taken in order to make sure it is not too dramatic or harmful to the animals.
A total of 38 rats were utilized. Thirty six (36) rats were divided into four groups of nine animals in each group. Two animals were used as the naïve, untreated group.
Topiramate was used in its original API form with no specific formulation. Topiramate was delivered to the nasal cavity either as a dry powder or as a solution of 10 mg/ml solubilized in Saline.
Application was by means of a SipNose device (FIG. 105) configured for use in the nasal cavities of rats. In order to alleviate the discomfort animal might endured during IN administration, Lidocaine was locally applied on the nasal area, prior to placement of the SipNose's device.
(§1) The study was performed according to the parameters of Table 31, for group allocation, and Table 32, for the study time-line. […] This provided a total of 1.56 mg per day per animal. For the liquid nasal samples, the administration was performed IN via SipNose's dedicated device at doses of 78 μL, from 10 mg/ml stock, or orally, after dilution to a dose volume of 200 μL. Food consumption was monitored two days before study initiation and daily during the study. Three (3) animals per group were sacrificed 45 minutes after the first dose of the first day, and six animals per group were sacrificed after 6 consecutive days of dosing, via CO2 asphyxiation.
Body weight was recorded upon arrival, 2 days before study initiation and once a day thereafter.

[5] = Repeated Topiramate dosing: plasma and brain concentrations; assay type: in vivo; conditions: rat, 0.78 mg, rats
Protocol: as §1
(§2) Perfusion was performed under anesthesia with Isoflurane, using saline, for further PK examination of compounds in the brain.
Animals were sacrificed 45 minutes after the first administration of Day 1 and the last administration of Day 6, following blood sampling of 400 μL, if required, as described below. Three (3) rats, sacrificed after the first dosing day, were perfused with saline for PK analysis of blood and brain. Animals sacrificed on the last day of the study ([…]) were divided into 2 groups: one animal in each cage was bled and perfused with saline, after which the brain was collected and frozen in liquid nitrogen for PK analysis. The second animal in the cage was sacrificed by CO2 asphyxiation and the nasal cavity (including the olfactory epithelium), nasopharynx, paranasal sinus, trachea, lungs, brain, heart and larynx were collected and fixed in 4% formaldehyde and Histopathological evaluation (H&E staining) was performed. Inflammatory status was evaluated. Slide preparation was followed by histopathological examination of the collected organs during scheduled termination and necropsy from all the animals. Tissues were trimmed, embedded in paraffin, sectioned at approximately five micron thickness and stained with Hematoxylin & Eosin (H&E).

[6] = rat, in vivo; remark: listed apart in the source
Protocol: (§3) A total of 13 male Sprague-Dawley rats were utilized. The animals were divided into four treated groups of three rats and one group with one naïve control rat.
(§4) The following tests were performed: • After sacrifice, gross pathology was performed, examining the nasal cavity (both sides, including the olfactory epithelium), the nasopharynx, paranasal sinus, trachea, lungs, brain (in several areas including the olfactory bulb), heart and larynx. • A histopathological evaluation of all groups of animals was made. • Blood was collected and plasma prepared 10, 30 and 90 min after the first and second administration and at termination.
(§5) IN application was carried out using solution at a dose volume of 300 μl per naris or as a powder (in two formulations). In all cases the total dose per rat was 6 mg of Topiramate. Prior to application of the test material, lidocaine was applied locally to the outer area of the nostril in order to decrease the level of distress.
(§6) Blood samples were collected into Li-Heparin tubes on ice, at 10, 30 and 90 min post first and second dosing. A blood volume of approximately 300 μl was obtained at each time point.
(§7) Topiramate was administered to the relevant study groups twice, with a five hour interval between administrations.

in vivo = conditions: male, Sprague-Dawley, rat, 6 mg; for half-life: Half-life (estimated)
Protocol: as §3, §4, §5, §6, §7

Sprague-Dawley rats = experiment: Topiramate safety and toxicity study (food consumption, body weight, histopathology); assay type: in vivo, rat
Protocol: A study was performed to evaluate the safety and toxicity, including adverse effects, of Topiramate following intranasal administration via a SipNose device to Sprague-Dawley (SD) rats. A dose 8 times the therapeutic dose was administered in order to determine the maximal tolerated dose. Doses used in this study were chosen to assess the safety of the approved drug given via the nose with an embodiment of a sipNose device.
Animals were observed individually at least once during the first 30 minutes after dosing, with special attention during the first four hours and prior to termination. Observations included changes in skin and fur, eyes and mucous membranes, and also respiratory, circulatory, autonomic and central nervous systems, and somatomotor activity and behavior pattern.
Body weight was monitored one day after the animals' arrival, prior to administration of the test material and before termination.
Animals were sacrificed via carbon dioxide asphyxiation and gross pathology was performed, examining the major tissue and organ systems.
Lungs were evaluated in both right and left lobes. All tissues were trimmed into block cassettes and sent to L.E.M for slide preparation and staining.

patients = conditions: commercial use; cited from earlier work
rats [7] = experiment: Repeated Topiramate dosing: histopathological evaluation; assay type: in vivo, rat; conditions: all samples of all tissues examined, 6 days dosing
Protocol: as §1, §2
Animals were sacrificed 45 minutes after the first administration of Day 1 and the last administration of Day 6, following blood sampling of 400 μL, if required, as described below. Three (3) rats, sacrificed after the first dosing day, were perfused with saline for PK analysis of blood and brain. Animals sacrificed on the last day of the study (after one dose only) were divided into 2 groups: one animal in each cage was bled and perfused with saline, after which the brain was collected and frozen in liquid nitrogen for PK analysis. […] Inflammatory status was evaluated. […]

[8] = Brain absorption of insulin after SipNose nasal administration (quantitative ELISA); assay type: in vivo; conditions: rabbit; 10 U/Kg via SipNose nasal administration; 1 h, 2 h, 3 h post administration
Protocol: The substance in this experiment is Human Insulin (Lispro insulin, 5807 Da); the animal model is a rabbit. Administration was 10 U/Kg of Human Insulin via SipNose nasal administration. Brain concentrations were measured using insulin quantitative ELISA at 1 h, 2 h, and 3 h post administration.

[9] = Blood and brain absorption of insulin, SipNose nasal vs IV administration; assay type: in vivo, rabbit; conditions: rabbits, 0.5 U/kg
Protocol: In FIG. 76A-C, the efficacy of delivery of insulin to the brain is compared for the SipNose device vs. IV administration. The substance was Lispro insulin (5,807 Da) administered to rabbits. Four rabbits were used; all animals were given 0.5 U/kg of Human Insulin. Administration was via IV for rabbits 1 and 3 and via SipNose nasal administration for rabbits 2 and 4. Brain concentrations were measured using insulin quantitative ELISA.

## O=C([O-])CN(CCN(CC(=O)[O-])CC(=O)[O-])CCN(CC(=O)[O-])CC(=O)[O-].[99Tc+4] [99mTC-DTPA]
[1]; pressure 4 barg
  distribution of aerosol (SPECT-CT): localized in the nasal cavity at the respiratory and olfactory epitheliums and also moved down into the Nasopharynx (upper dotted arrow) and into the GI tract
[1]; pressure 6 barg
  distribution of aerosol (SPECT-CT): localized in the nasal cavity at the respiratory and olfactory epitheliums (dashed arrow) and did not reach the Nasopharynx and did not enter the GI tract

## O=C1OC2(c3ccc(O)cc3Oc3cc(O)ccc32)c2ccccc21 [Fluorescein]
[2]
  distribution within the brain: distributed throughout the brain, rather than being concentrated in the cerebellum
  early deposition in the spinal cord: considerably less early deposition
  uptake to the brain vs I/V: considerably more uptake to the brain

## CC1(C)O[C@@H]2[C@@H](CO[C@@]3(COS(N)(=O)=O)OC(C)(C)O[C@@H]23)O1 [Topiramate]
Rats [3]
  time for which ED50 is stable after oral administration: 8 h
Rats [4]; Group 2M liquid Topiramate oral
  food consumption: increased food consumption
Rats [4]; Group 2M, end of treatment period (day 6)
  increase in body weight relative to all other treatment groups: 2 fold
Rats [4]; Group 2M, liquid Topiramate oral, 0.78 mg twice a day, 6 days
  increase in body weight during the treatment phase: approximately 17%
Rats [4]; Group 3M liquid Topiramate IN SipNose
  food consumption: reduced food consumption
Rats [4]; Group 4M dry powder Topiramate IN SipNose
  food consumption: reduced food consumption
Rats [4]; the other treatment groups (IN via SipNose)
  increase in body weight during the treatment phase: ~8%
[5]; brain, other: IN (intranasal) via SipNose device, group 4M powder IN, read-out: Topiramate brain concentration following the 11th administration
  concentration at 45 min: 1030 ± 172 ng/mL
[5]; plasma, other: IN (intranasal) via SipNose device, group 3M liquid IN, 45 minutes, read-out: Topiramate plasma concentration after the first administration
  concentration at 45 min: 1510 ± 505 ng/mL
[5]; plasma, other: IN (intranasal) via SipNose device, group 4M powder IN, 45 minutes, read-out: Topiramate plasma concentration after the first administration
  concentration at 45 min: 4140 ± 597 ng/mL
[5]; plasma, other: IN (intranasal) via SipNose device, group 4M powder IN, read-out: Topiramate plasma (blood) concentration following the 11th administration
  concentration at 45 min: 1980 ± 256 ng/mL
[5]; plasma, po, group 2M liquid oral, 45 minutes, read-out: Topiramate plasma concentration after the first administration
  concentration at 45 min: 2070 ± 228 ng/mL
[6]; male, Sprague-Dawley, 10 min
  lower plasma value 10 minutes after second vs first administration: 26%
  plasma level 10 minutes after first administration, IN vs oral: about twice the concentration found 10 minutes after oral administration
[6]; male, Sprague-Dawley, inhaled or intranasal, 6 mg
  Half-life (estimated): 5.07 h
[6]; male, Sprague-Dawley, po, 10 min
  higher plasma value 10 minutes after second vs first administration: 84%
[6]
  plasma levels 18 hours after the second administration: dropped to pre-administration levels
In vivo
  half-life: 0.75 h
In vivo; inhaled or intranasal
  half-life: 4.32 h
In vivo; po, AUC (estimated)
  AUC: 11800 ng·h/mL
Sprague-Dawley rats; rats treated IN with Topiramate liquid
  Food consumption on Day 2, relative to naïve rats: 98%
Sprague-Dawley rats; rats treated by Topiramate powder IN
  Food consumption on Day 2, relative to naïve rats: around 60%
Sprague-Dawley rats; rats treated orally with Topiramate
  Food consumption on Day 2, relative to naïve rats: 91%
Sprague-Dawley rats; rats, all groups
  body weight change from study initiation to termination: relatively minor
Sprague-Dawley rats; rats, any animal, any investigated tissue, 6 mg twice, oral or IN
  drug-related pathological changes (histology): No drug-related pathological changes were detected
patients
  patients with side effects such as somnolence, fatigue and dizziness: over 10%
Rats [7]
  histopathological findings after repeated dosing: No major histopathological findings were observed

## Lispro Insulin: Human Insulin (Lispro insulin, 5807 Da)
[8]
  delivery of insulin to the brain (brain concentration, ELISA): delivered to the brain with the SipNose device and can be specifically detected
[9]; SipNose direct-nose-to-brain
  distribution of insulin in parts of the brain: Insulin in both anterior and posterior parts of the brain
[9]; SipNose nasal vs IV
  efficiency of delivery to the brain compared to I/V: highly efficient when compared to I/V administration
